# Assays:
# Assay in all cases: radiometric filter-binding kinase assay
# [1] = biological target: MAPK8 (human) (UniProt P45983)
# [2] = biological target: INSR (human) (UniProt P06213)
# [3] = test system: RPS6KB1 (human), P23443 [T412E]
# [4] = test system: AKT1 (human), P31749 [S473D]
# [5] = biological target: GCK (human) (UniProt Q12851)
# [6] = biological target: HIPK2 (human) (UniProt Q9H2X6)
# [7] = biological target: TBK1 (human) (UniProt Q9UHD2)
# [8] = biological target: DYRK3 (human) (UniProt O43781)
# [9] = biological target: EPHA2 (human) (UniProt P29317)
# [10] = biological target: MAP3K1 (human) (UniProt Q13233)
# Sequence of MAP3K1 (human) (Q13233 whole entry, looked up): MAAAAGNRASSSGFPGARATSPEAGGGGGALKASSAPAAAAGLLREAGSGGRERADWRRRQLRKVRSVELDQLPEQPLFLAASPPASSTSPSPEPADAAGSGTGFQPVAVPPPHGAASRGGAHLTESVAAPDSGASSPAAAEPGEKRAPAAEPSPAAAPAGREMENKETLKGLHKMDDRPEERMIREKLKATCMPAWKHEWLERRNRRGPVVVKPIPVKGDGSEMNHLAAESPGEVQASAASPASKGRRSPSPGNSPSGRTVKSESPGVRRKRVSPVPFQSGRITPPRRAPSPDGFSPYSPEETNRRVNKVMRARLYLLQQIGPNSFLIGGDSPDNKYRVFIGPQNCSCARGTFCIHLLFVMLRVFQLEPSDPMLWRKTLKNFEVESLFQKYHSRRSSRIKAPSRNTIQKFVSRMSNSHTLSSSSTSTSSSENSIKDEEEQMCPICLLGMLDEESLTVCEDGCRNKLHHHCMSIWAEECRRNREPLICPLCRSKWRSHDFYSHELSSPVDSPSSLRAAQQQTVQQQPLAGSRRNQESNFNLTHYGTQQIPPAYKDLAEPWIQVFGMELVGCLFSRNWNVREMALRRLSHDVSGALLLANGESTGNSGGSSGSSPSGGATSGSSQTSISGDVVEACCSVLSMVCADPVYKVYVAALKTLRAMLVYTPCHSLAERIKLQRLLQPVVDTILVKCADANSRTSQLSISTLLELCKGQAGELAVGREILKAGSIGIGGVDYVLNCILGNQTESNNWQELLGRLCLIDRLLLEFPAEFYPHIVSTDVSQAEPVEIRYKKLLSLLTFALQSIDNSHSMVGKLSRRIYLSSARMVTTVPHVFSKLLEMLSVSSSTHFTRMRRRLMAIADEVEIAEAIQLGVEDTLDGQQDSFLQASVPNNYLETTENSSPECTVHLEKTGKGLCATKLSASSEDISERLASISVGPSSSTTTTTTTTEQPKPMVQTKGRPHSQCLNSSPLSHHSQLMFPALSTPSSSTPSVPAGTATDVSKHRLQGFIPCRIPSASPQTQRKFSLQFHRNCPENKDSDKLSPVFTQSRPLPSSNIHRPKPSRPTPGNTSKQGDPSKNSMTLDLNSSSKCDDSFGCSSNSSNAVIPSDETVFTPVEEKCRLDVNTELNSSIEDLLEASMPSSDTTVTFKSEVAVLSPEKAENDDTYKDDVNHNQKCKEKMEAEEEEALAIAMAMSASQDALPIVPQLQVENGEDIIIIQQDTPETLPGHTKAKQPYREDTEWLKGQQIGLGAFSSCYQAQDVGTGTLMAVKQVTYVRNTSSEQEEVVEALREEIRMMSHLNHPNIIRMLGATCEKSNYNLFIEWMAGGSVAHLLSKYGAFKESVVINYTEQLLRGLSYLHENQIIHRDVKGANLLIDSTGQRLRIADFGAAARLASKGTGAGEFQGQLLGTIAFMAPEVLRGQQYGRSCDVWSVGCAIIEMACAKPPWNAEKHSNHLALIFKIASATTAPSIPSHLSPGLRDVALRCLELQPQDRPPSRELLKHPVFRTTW
# [11] = biological target: MARK3 (human) (UniProt P27448)
# [12] = biological target: MAPK11 (human) (UniProt Q15759)
# Sequence of MAPK11 (human) (Q15759 whole entry, looked up): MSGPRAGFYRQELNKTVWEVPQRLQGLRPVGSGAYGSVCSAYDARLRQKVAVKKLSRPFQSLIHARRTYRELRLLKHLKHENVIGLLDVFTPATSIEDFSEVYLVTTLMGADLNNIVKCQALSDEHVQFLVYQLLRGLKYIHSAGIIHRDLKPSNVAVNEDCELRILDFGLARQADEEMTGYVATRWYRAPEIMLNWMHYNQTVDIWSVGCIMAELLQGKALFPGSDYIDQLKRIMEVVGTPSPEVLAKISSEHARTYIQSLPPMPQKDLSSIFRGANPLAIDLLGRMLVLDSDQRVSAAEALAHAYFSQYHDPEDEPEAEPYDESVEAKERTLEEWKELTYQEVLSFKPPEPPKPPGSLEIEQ
# [13] = biological target: MAPK10 (human) (UniProt P53779)
# [14] = biological target: JAK2 JH1 JH2 (human) (UniProt O60674)
# [15] = biological target: EPHB4 (human) (UniProt P54760)
# [16] = biological target: BRSK1 (human) (UniProt Q8TDC3)
# [17] = biological target: MAPK9 (human) (UniProt P45984)
# [18] = biological target: STK3 (human) (UniProt Q13188)
# Sequence of STK3 (human) (Q13188 whole entry, looked up): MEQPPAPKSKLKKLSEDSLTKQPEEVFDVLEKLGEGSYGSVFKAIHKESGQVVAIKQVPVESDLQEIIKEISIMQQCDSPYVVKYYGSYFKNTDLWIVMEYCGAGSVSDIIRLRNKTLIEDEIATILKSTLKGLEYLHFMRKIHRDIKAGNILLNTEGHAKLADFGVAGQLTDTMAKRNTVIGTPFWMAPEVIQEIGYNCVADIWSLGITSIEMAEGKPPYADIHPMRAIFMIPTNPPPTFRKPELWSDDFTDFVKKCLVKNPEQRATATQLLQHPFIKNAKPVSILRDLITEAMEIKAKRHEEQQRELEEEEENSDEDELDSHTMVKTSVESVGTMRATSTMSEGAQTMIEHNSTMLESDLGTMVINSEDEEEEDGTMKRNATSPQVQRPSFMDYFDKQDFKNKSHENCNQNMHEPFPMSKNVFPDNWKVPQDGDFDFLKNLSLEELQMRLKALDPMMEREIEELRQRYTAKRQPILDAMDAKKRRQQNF
# [19] = biological target: HIPK1 (human) (UniProt Q86Z02)
# [20] = biological target: EPHB2 (human) (UniProt P29323)
# [21] = biological target: MAP3K5 (human) (UniProt Q99683)
# [22] = biological target: MAP3K11 (human) (UniProt Q16584)
# [23] = biological target: AURKA (human) (UniProt O14965)
# [24] = biological target: TAOK1 (human) (UniProt Q7L7X3)
# Sequence of TAOK1 (human) (Q7L7X3 whole entry, looked up): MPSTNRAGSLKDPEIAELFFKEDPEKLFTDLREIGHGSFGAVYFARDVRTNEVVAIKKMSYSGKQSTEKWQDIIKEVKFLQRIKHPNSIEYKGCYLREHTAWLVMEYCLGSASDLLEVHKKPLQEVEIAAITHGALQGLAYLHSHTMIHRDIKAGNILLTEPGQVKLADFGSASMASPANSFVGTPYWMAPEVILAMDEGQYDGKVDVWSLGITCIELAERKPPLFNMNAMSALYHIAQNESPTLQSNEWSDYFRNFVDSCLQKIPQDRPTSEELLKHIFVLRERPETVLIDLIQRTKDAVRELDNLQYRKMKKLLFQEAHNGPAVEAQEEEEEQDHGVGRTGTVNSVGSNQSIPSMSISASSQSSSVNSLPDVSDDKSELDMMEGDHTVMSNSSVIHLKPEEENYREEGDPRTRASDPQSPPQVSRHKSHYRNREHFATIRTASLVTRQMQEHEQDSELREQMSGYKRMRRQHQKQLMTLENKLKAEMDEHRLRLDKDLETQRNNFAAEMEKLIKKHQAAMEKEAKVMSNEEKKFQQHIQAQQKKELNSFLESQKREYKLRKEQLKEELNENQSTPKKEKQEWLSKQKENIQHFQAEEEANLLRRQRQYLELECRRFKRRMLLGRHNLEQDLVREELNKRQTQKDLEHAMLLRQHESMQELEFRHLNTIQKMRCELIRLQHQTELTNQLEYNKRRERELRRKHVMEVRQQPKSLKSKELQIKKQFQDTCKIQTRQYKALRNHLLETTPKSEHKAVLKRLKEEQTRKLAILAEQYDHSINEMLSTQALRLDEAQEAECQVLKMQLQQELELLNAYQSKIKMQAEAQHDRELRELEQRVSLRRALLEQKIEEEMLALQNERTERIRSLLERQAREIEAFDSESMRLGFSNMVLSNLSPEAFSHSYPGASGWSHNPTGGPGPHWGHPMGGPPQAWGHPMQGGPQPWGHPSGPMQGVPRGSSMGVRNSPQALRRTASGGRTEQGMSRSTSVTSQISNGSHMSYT
# [25] = biological target: BTK (human) (UniProt Q06187)
# [26] = biological target: CaMK1 (human) (UniProt Q14012)
# [27] = biological target: FLT1 (human) (UniProt P17948)
# [28] = biological target: YES1 (human) (UniProt P07947)
# [29] = biological target: PRKCA (human) (UniProt P17252)
# [30] = biological target: DYRK2 (human) (UniProt Q92630)
# [31] = biological target: BRSK2 (human) (UniProt Q8IWQ3)
# Sequence of BRSK2 (human) (Q8IWQ3 whole entry, looked up): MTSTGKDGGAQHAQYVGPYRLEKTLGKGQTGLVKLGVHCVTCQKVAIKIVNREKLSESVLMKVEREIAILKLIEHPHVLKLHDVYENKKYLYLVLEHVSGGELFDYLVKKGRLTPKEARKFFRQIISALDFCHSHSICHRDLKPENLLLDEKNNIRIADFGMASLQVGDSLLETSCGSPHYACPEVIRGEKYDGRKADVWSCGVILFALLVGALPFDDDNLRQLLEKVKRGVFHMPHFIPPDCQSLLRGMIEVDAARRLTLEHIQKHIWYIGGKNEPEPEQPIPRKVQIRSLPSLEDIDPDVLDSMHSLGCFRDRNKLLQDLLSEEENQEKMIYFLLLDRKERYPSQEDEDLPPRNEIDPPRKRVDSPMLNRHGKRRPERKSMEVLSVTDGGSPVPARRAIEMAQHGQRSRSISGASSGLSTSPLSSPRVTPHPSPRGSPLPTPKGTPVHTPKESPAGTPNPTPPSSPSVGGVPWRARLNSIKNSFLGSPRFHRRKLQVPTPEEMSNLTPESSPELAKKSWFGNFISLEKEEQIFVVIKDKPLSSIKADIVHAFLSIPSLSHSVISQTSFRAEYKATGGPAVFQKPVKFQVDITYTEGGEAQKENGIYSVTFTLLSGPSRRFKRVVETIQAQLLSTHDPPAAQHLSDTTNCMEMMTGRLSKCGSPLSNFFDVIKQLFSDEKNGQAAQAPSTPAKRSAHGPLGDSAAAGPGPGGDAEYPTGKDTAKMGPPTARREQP
# [32] = biological target: MAP2K1 (human) (UniProt Q02750)
# [33] = biological target: PIM1 (human) (UniProt P11309)
# Sequence of PIM1 (human) (P11309 whole entry, looked up): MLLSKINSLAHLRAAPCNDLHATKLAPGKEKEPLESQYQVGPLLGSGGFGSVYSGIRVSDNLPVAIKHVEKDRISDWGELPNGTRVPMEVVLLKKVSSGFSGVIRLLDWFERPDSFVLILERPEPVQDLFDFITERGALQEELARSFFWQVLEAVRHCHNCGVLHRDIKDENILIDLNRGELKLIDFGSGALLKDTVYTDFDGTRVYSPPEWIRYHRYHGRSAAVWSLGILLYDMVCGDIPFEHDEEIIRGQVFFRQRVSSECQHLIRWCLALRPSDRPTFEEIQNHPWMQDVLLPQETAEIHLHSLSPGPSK
# [34] = biological target: SYK (human) (UniProt P43405)
# [35] = biological target: EPHB1 (human) (UniProt P54762)
# Sequence of AKT1 (human), P31749 [S473D] (P31749 whole entry S473D, looked up): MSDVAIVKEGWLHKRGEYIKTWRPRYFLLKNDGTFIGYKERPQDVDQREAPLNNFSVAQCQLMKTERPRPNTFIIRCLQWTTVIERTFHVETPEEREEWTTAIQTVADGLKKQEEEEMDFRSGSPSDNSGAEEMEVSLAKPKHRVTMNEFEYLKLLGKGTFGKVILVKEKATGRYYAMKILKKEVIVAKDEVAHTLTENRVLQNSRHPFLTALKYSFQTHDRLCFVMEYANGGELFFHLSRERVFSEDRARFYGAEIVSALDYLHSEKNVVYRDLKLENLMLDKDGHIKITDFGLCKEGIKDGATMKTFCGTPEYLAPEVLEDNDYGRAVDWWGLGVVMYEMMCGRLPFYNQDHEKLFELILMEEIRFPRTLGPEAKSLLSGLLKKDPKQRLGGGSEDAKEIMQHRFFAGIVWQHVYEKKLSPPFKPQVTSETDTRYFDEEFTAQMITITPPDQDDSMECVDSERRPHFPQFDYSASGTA
smiles,measurement,setting,value
NS(=O)(=O)OC[C@@H]1C[C@@H](n2ccc3c(N[C@H]4CCc5ccccc54)ncnc32)C[C@@H]1O,residual activity,[1]; compound 1.0 µM,84%
same,residual activity,[1]; compound 10.0 µM,97%
same,residual activity,[2]; compound 1.0 µM,89%
same,residual activity,[2]; compound 10.0 µM,93%
same,residual activity,[3]; compound 1.0 µM,94%
same,residual activity,[3]; compound 10.0 µM,85%
same,residual activity,[4]; compound 1.0 µM,118%
same,residual activity,[4]; compound 10.0 µM,119%
same,residual activity,[5]; compound 1.0 µM,91%
same,residual activity,[5]; compound 10.0 µM,88%
same,residual activity,[6]; compound 1.0 µM,88%
same,residual activity,[6]; compound 10.0 µM,97%
same,residual activity,[7]; compound 10.0 µM,88%
same,residual activity,[8]; compound 10.0 µM,84%
same,residual activity,[9]; compound 10.0 µM,105%
same,residual activity,[10]; compound 10.0 µM,107%
same,residual activity,[11]; compound 1.0 µM,101%
same,residual activity,[11]; compound 10.0 µM,100%
same,residual activity,[12]; compound 1.0 µM,95%
same,residual activity,[12]; compound 10.0 µM,98%
same,residual activity,[13]; compound 1.0 µM,81%
same,residual activity,[13]; compound 10.0 µM,82%
same,residual activity,[14]; compound 1.0 µM,89%
same,residual activity,[14]; compound 10.0 µM,93%
same,residual activity,[15]; compound 1.0 µM,106%
same,residual activity,[15]; compound 10.0 µM,108%
same,residual activity,[16]; compound 1.0 µM,89%
same,residual activity,[17]; compound 1.0 µM,83%
same,residual activity,[17]; compound 10.0 µM,88%
same,residual activity,[18]; compound 1.0 µM,87%
same,residual activity,[18]; compound 10.0 µM,84%
same,residual activity,[19]; compound 1.0 µM,98%
same,residual activity,[20]; compound 1.0 µM,107%
same,residual activity,[20]; compound 10.0 µM,109%
same,residual activity,[21]; compound 1.0 µM,87%
same,residual activity,[21]; compound 10.0 µM,87%
same,residual activity,[22]; compound 1.0 µM,92%
same,residual activity,[22]; compound 10.0 µM,92%
same,residual activity,[23]; compound 1.0 µM,103%
same,residual activity,[23]; compound 10.0 µM,97%
same,residual activity,[24]; compound 1.0 µM,104%
same,residual activity,[24]; compound 10.0 µM,100%
same,residual activity,[25]; compound 10.0 µM,105%
same,residual activity,[26]; compound 1.0 µM,114%
same,residual activity,[26]; compound 10.0 µM,110%
same,residual activity,[27]; compound 1.0 µM,89%
same,residual activity,[27]; compound 10.0 µM,104%
same,residual activity,[28]; compound 10.0 µM,79%
same,residual activity,[29]; compound 10.0 µM,88%
same,residual activity,[30]; compound 1.0 µM,93%
same,residual activity,[30]; compound 10.0 µM,92%
same,residual activity,[31]; compound 1.0 µM,92%
same,residual activity,[31]; compound 10.0 µM,86%
same,residual activity,[32]; compound 1.0 µM,95%
same,residual activity,[32]; compound 10.0 µM,99%
same,residual activity,[33]; compound 10.0 µM,103%
same,residual activity,[34]; compound 1.0 µM,92%
same,residual activity,[34]; compound 10.0 µM,104%
same,residual activity,[35]; compound 10.0 µM,100%
CC1=C(CO)C(=O)O[C@@H]([C@@H](C)[C@H]2CC[C@H]3[C@@H]4C[C@H]5O[C@]56[C@@H](O)C=CC(=O)[C@]6(C)C4CC[C@]23C)C1 (stereo not given in full),residual activity,[1]; compound 0.1 µM,103%
same,residual activity,[1]; compound 1.0 µM,102%
same,residual activity,[1]; compound 10.0 µM,110%
same,residual activity,[2]; compound 1.0 µM,117%
same,residual activity,[3]; compound 0.1 µM,99%
same,residual activity,[3]; compound 1.0 µM,97%
same,residual activity,[3]; compound 10.0 µM,69%
same,residual activity,[4]; compound 0.1 µM,118%
same,residual activity,[4]; compound 1.0 µM,99%
same,residual activity,[4]; compound 10.0 µM,105%
same,residual activity,[5]; compound 0.1 µM,98%
same,residual activity,[5]; compound 1.0 µM,106%
same,residual activity,[5]; compound 10.0 µM,68%
same,residual activity,[6]; compound 0.1 µM,108%
same,residual activity,[6]; compound 1.0 µM,113%
same,residual activity,[6]; compound 10.0 µM,60%
same,residual activity,[7]; compound 1.0 µM,107%
same,residual activity,[7]; compound 10.0 µM,93%
same,residual activity,[8]; compound 0.1 µM,103%
same,residual activity,[8]; compound 1.0 µM,101%
same,residual activity,[8]; compound 10.0 µM,78%
same,residual activity,[9]; compound 0.1 µM,94%
same,residual activity,[9]; compound 1.0 µM,93%
same,residual activity,[9]; compound 10.0 µM,96%
same,residual activity,[10]; compound 0.1 µM,112%
same,residual activity,[10]; compound 1.0 µM,115%
same,residual activity,[10]; compound 10.0 µM,95%
same,residual activity,[11]; compound 0.1 µM,99%
same,residual activity,[11]; compound 1.0 µM,114%
same,residual activity,[11]; compound 10.0 µM,118%
same,residual activity,[12]; compound 0.1 µM,121%
same,residual activity,[12]; compound 10.0 µM,128%
same,residual activity,[13]; compound 0.1 µM,122%
same,residual activity,[13]; compound 1.0 µM,125%
same,residual activity,[13]; compound 10.0 µM,136%
same,residual activity,[14]; compound 0.1 µM,98%
same,residual activity,[14]; compound 1.0 µM,98%
same,residual activity,[14]; compound 10.0 µM,103%
same,residual activity,[15]; compound 0.1 µM,120%
same,residual activity,[15]; compound 1.0 µM,119%
same,residual activity,[15]; compound 10.0 µM,105%
same,residual activity,[16]; compound 0.1 µM,106%
same,residual activity,[16]; compound 1.0 µM,111%
same,residual activity,[16]; compound 10.0 µM,91%
same,residual activity,[17]; compound 0.1 µM,112%
same,residual activity,[17]; compound 1.0 µM,114%
same,residual activity,[17]; compound 10.0 µM,119%
same,residual activity,[18]; compound 0.1 µM,123%
same,residual activity,[18]; compound 1.0 µM,126%
same,residual activity,[18]; compound 10.0 µM,129%
same,residual activity,[19]; compound 0.1 µM,110%
same,residual activity,[19]; compound 1.0 µM,112%
same,residual activity,[19]; compound 10.0 µM,101%
same,residual activity,[20]; compound 0.1 µM,116%
same,residual activity,[20]; compound 1.0 µM,102%
same,residual activity,[20]; compound 10.0 µM,105%
same,residual activity,[21]; compound 0.1 µM,104%
same,residual activity,[21]; compound 1.0 µM,100%
same,residual activity,[22]; compound 0.1 µM,110%
same,residual activity,[22]; compound 1.0 µM,110%
same,residual activity,[22]; compound 10.0 µM,97%
same,residual activity,[23]; compound 0.1 µM,108%
same,residual activity,[23]; compound 1.0 µM,102%
same,residual activity,[23]; compound 10.0 µM,30%
same,residual activity,[24]; compound 0.1 µM,103%
same,residual activity,[24]; compound 1.0 µM,113%
same,residual activity,[24]; compound 10.0 µM,120%
same,residual activity,[25]; compound 0.1 µM,118%
same,residual activity,[25]; compound 1.0 µM,115%
same,residual activity,[25]; compound 10.0 µM,110%
same,residual activity,[26]; compound 0.1 µM,92%
same,residual activity,[26]; compound 1.0 µM,84%
same,residual activity,[26]; compound 10.0 µM,30%
same,residual activity,[27]; compound 0.1 µM,120%
same,residual activity,[27]; compound 10.0 µM,30%
same,residual activity,[28]; compound 0.1 µM,99%
same,residual activity,[28]; compound 1.0 µM,112%
same,residual activity,[29]; compound 0.1 µM,96%
same,residual activity,[29]; compound 1.0 µM,111%
same,residual activity,[29]; compound 10.0 µM,96%
same,residual activity,[30]; compound 0.1 µM,97%
same,residual activity,[30]; compound 1.0 µM,88%
same,residual activity,[30]; compound 10.0 µM,104%
same,residual activity,[31]; compound 0.1 µM,99%
same,residual activity,[31]; compound 1.0 µM,103%
same,residual activity,[31]; compound 10.0 µM,77%
same,residual activity,[32]; compound 0.1 µM,100%
same,residual activity,[32]; compound 10.0 µM,111%
same,residual activity,[33]; compound 0.1 µM,109%
same,residual activity,[33]; compound 1.0 µM,103%
same,residual activity,[33]; compound 10.0 µM,94%
same,residual activity,[34]; compound 1.0 µM,115%
same,residual activity,[34]; compound 10.0 µM,130%
same,residual activity,[35]; compound 0.1 µM,105%
same,residual activity,[35]; compound 1.0 µM,101%
same,residual activity,[35]; compound 10.0 µM,107%

# — the kinase profiling compilation of Christmann-Franck et al. (2016)
